Measurements as given in ChEMBL document CHEMBL1255230, “Chemical inhibitor of nonapoptotic cell death with therapeutic potential for ischemic brain injury” (Nat Chem Biol, 2005).
Activity calls are given as the source filed them. No cut-off for these calls is given here.

Experiments:
[1] = test system: Jurkat; assay: Effect on cell cycle in human Jurkat cells deficient in FADD assessed as cells in G1 phase relative to control; type: functional
[2] = test system: Jurkat; assay: Induction of proliferative capacity in necroptotic human Jurkat cell deficient in FADD assessed as cell viability; type: functional, cell-based
[3] = test system: Jurkat; assay: Effect on mitochondrial membrane potential in human Jurkat cells; type: functional, cell-based
[4] = test system: Jurkat; assay: Effect on apoptosis in human Jurkat cell assessed as cytoplasm condensation by electron microscopy in presence of FasL and CHX; type: functional, cell-based
[5] = Inhibition of death receptor signaling mediated necrotic cell death in human Jurkat cell expressing FADD fused to FKBP12-based dimerization domain (JK-FF)assessed as cell viability after 48 hrs by ATP based viability assay in presence of AP20187 and zVAD.fmk
[6] = Inhibition of death receptor signaling mediated necroptotic cell death in human Jurkat cells deficient in FADD and expressing FKBP12-based dimerization domain assessed as cell viability after 48 hrs by FACS in presence of AP1510, zVAD-fmk
[7] = Inhibition of death receptor signaling mediated necrotic cell death in rat IEC18 cells assessed as cell viability in presence of TNFalpha and zVAD.fmk; type: cell-based
[8] = Inhibition of death receptor signaling mediated apoptosis in human Jurkat cell assessed as inhibition of plasma membrane permeability after 24 hrs by in presence of FasL, CHX and zVAD.fmk; type: cell-based
[9] = Inhibition of death receptor signaling mediated necroptotic cell death in human Jurkat cell deficient in FADD assessed as cytoprotection after 30 hrs by in presence of TNFalpha; type: cell-based
[10] = test system: Jurkat; assay: Inhibition of necrosis in human Jurkat cells assessed as appearance of translucent cytosol in presence of FasL, CHX and zVAD-fmk; type: functional, cell-based
[11] = test system: Jurkat; assay: Effect on cell cycle in human Jurkat cells deficient in FADD assessed as cells in sub-G1 phase in presence of TNFalpha relative to control; type: functional
[12] = Inhibition of death receptor signaling mediated necroptotic cell death in human Jurkat cells deficient in FADD and expressing FKBP12-based dimerization domain assessed as cell viability after 48 hrs by FACS in presence of AP1510
[13] = test system: Jurkat; assay: Effect on apoptosis in human Jurkat cell assessed as chromatin marginalization by electron microscopy in presence of FasL and CHX; type: functional, cell-based
[14] = test system: Jurkat; assay: Inhibition of necrosis in human Jurkat cells deficient in FADD assessed as inhibition of organelle swelling by bright field microscopy in presence of TNFalpha; type: functional, cell-based
[15] = Inhibition of death receptor signaling mediated necrotic cell death in mouse 3T3 cells assessed as cell viability after 24 hrs by ATP based viability assay in presence of TNFalpha and zVAD.fmk; settings: NIH3T3
[16] = test system: Jurkat; assay: increase in intracellular ROS level in human Jurkat cells; type: functional, cell-based
[17] = Inhibition of death receptor signaling mediated apoptosis in human Jurkat cell assessed as inhibition of mitochondrial dysfunction after 24 hrs by in presence of FasL, CHX and zVAD.fmk; type: cell-based
[18] = test system: Jurkat; assay: Inhibition of necrosis in human Jurkat cells deficient in FADD assessed as inhibition of nuclear condensation by bright field microscopy in presence of TNFalpha; type: functional, cell-based
[19] = test system: Jurkat; assay: Effect on cell cycle in human Jurkat cells assessed as cells in G2/M phase; type: functional, cell-based
[20] = Inhibition of death receptor signaling mediated necrotic cell death in human HL60 cells assessed as cell viability in presence of TNFalpha and zVAD.fmk; type: cell-based; settings: HL-60
[21] = test system: U-937; assay: Inhibition of apoptosis in human U937 cells assessed as cell viability after 48 hrs by ATP based viability assay in presence of TNFalpha and CHX; type: functional
[22] = test system: Jurkat; assay: Inhibition of necrosis in human Jurkat cells assessed as organelle swelling by bright field microscopy in presence of FasL, CHX and zVAD-fmk; type: functional, cell-based
[23] = test system: Jurkat; assay: Effect on cell cycle in human Jurkat cells assessed as cells in sub-G1 phase; type: functional, cell-based
[24] = test system: NIH3T3; assay: Effect on morphology of mitochondria in mouse 3T3 cells after 24 hrs by anti-cytochrome c immunofluorescence in presence of TNFalpha and zVAD-fmk; type: functional, cell-based
[25] = test system: Jurkat; assay: Effect on cell cycle in human Jurkat cells deficient in FADD assessed as cells in S phase in presence of TNFalpha relative to control; type: functional
[26] = test system: NIH3T3; assay: Effect on morphology of endoplasmic reticulum in mouse 3T3 cells after 24 hrs by anti-KDEL immunofluorescence in presence of TNFalpha and zVAD-fmk; type: functional, cell-based
[27] = test system: Jurkat; assay: Effect on changes in cell shape in human Jurkat cells; type: functional, cell-based
[28] = test system: Jurkat; assay: Effect on cell cycle in human Jurkat cells assessed as cells in G1 phase; type: functional, cell-based
[29] = test system: Jurkat; assay: Effect on plasma membrane integrity in human Jurkat cells; type: functional, cell-based
[30] = test system: Jurkat; assay: Effect on cell cycle in human Jurkat cells deficient in FADD assessed as cells in G2/M phase in presence of TNFalpha relative to control; type: functional
[31] = Inhibition of death receptor signaling mediated necroptotic cell death in human Jurkat cells deficient in FADD and expressing RIP kinase domain assessed as cell viability after 48 hrs by FACS in presence of AP1510, zVAD-fmk; type: cell-based
[32] = test system: Jurkat; assay: Effect on cell cycle in human Jurkat cells assessed as cells in S phase; type: functional, cell-based
[33] = Inhibition of death receptor signaling mediated necroptotic cell death in human U937 cells assessed as cell viability after 48 hrs by ATP based viability assay in presence of TNFalpha and zVAD-fmk; settings: U-937
[34] = Inhibition of death receptor signaling mediated necrotic cell death in SV40 transformed mouse MEF cells assessed as cell viability after 16 hrs by ATP based viability assay in presence of TNFalpha, CHX and zVAD.fmk
[35] = Inhibition of death receptor signaling mediated necroptotic cell death in human Jurkat cells deficient in FADD and expressing RIP K45M mutant assessed as cell viability after 48 hrs by FACS in presence of AP1510, zVAD-fmk; type: cell-based
[36] = test system: Jurkat; assay: Effect on cell cycle in human Jurkat cells deficient in FADD assessed as cells in G1 phase in presence of TNFalpha relative to control; type: functional
[37] = Inhibition of death receptor signaling mediated necroptotic cell death in mouse 3T3 cells assessed as decreased levels of PE-conjugated autophagy marker LC3-II after 24 hrs by Western blot method in presence of rapamycin; type: cell-based; settings: NIH3T3
[38] = Inhibition of death receptor signaling mediated apoptosis in human Jurkat cell assessed as cytoprotection after 30 hrs by in presence of FasL, CHX and zVAD.fmk; type: cell-based
[39] = Inhibition of death receptor signaling mediated necroptotic cell death in human Jurkat cells deficient in FADD and expressing RIP kinase domain assessed as cell viability after 48 hrs by FACS in presence of AP1510; type: cell-based
[40] = Inhibition of death receptor signaling mediated necrotic cell death in human Jurkat cell assessed as cell viability after 30 hrs by ATP based viability assay in presence of FasL, CHX, zVAD.fmk
[41] = Inhibition of death receptor signaling mediated necroptotic cell death in mouse 3T3 cells assessed as decreased levels of PE-conjugated autophagy marker LC3-II after 24 hrs by Western blot method in presence of FasL and zVAD-fmk; type: cell-based; settings: NIH3T3
[42] = Inhibition of death receptor signaling mediated necrotic cell death in mouse 3T3 cells assessed as cell viability after 24 hrs by ATP based viability assay in presence of FasL and zVAD.fmk; settings: NIH3T3

SMILES: CN1C(=O)C(Cc2c[nH]c3ccccc23)NC1=S (configuration not stated) [NECROSTATIN]
- Activity [1]: 41.5%
- Activity [2]: Active
- Activity [3]: inactive
- Activity [4]: inactive
- inhibition [5]: Active
- inhibition [6]: Active
- inhibition [7]: Active
- inhibition [8]: Active
- inhibition [9]: Active
- inhibition [10]: Active
- Activity [11]: 0.7%
- inhibition [12]: Active
- Activity [13]: inactive
- inhibition [14]: Active
- inhibition [15]: Active
- Activity [16]: inactive
- inhibition [17]: Active
- inhibition [18]: Active
- Activity [19]: inactive
- inhibition [20]: Active
- inhibition [21]: inactive
- inhibition [22]: Active
- Activity [23]: inactive
- Activity [24]: inactive
- Activity [25]: 44.8%
- Activity [26]: inactive
- Activity [27]: inactive
- Activity [28]: inactive
- Activity [29]: inactive
- Activity [30]: 12.1%
- inhibition [31]: Active
- Activity [32]: inactive
- inhibition [33]: Active
- inhibition [34]: Active
- inhibition [35]: Active
- Activity [36]: 43.1%
- inhibition [37]: Active
- inhibition [38]: inactive
- inhibition [39]: Active
- inhibition [40]: Active
- inhibition [41]: Active
- inhibition [42]: Active
